Data on one compound can be found in patent publication US4360595A, “Fermentation process for producing anandimycin” (Bristol-Myers Company, priority 1981, dated 1982).

≈ marks a conversion by molar mass, not a printed value.

Data set [1] in a line: solubility in organic solvents (trituration, chromatography). In kind it is physicochemical. An excerpt:
The solids obtained from extraction of the whole broth are next washed with diethyl ether to remove any lard oils and antifoams used in the fermentation. […] To remedy this problem a simple organic solvent trituration scheme was developed which effects a gross separation of the yellow pigments and another class of antitumor agents produced by strain C-22,437 (rachelmycin) from anandimycin on the basis of differential solubility. […] The first step involves trituration of the extraction solids with acetone. The resulting filtrate contains another antitumor substance which is active in the lysogenic bacteria induction assay and the P388 mouse tumor system (rachelmycin). The insoluble solid from the acetone trituration contains the yellow pigments along with a complex of anandimycin and another similar compound. The second phase of the process involves trituration with a ternary organic solvent system 40:30:30(^v/v) chloroform:methanol:tetrahydrofuran. The soluble fraction contains the yellow pigments. […] Substantially pure anandimycin is separated from the enriched mixture using high pressure liquid chromatography on silica gel as described in more detail below.
The analytical solvent system routinely used is hexane:ethyl acetate:isopropanol (30:70:3^v /v) along with 0.1 to 0.4 part water depending on the relative activity state of the silica gel surface in the column being used. If tailing effects are observed, then typically one increases the water content of the solvent system within the 0.1-0.4 part range to improve peak symmetry, thereby permitting a more quantitative analysis.
The preparative solvent system is ethyl acetate:isopropanol:water (87:13:0.5^v /v). […] A shave-recycle method involves increasing the effective silica gel column length through the employment of continuous multiple pass chromatography of the anandimycin-component II band. […] Initial chromatography gave anandimycin enriched to 70-85% purity. Accumulated solids are rechromatographed to yield material of >90% purity. […]

A further data set deals with Str. pneumoniae 9585. Description: in vitro MIC, standard tube dilution procedure. The conditions noted are these: Streptococcus pneumoniae, 9585, read-out: Minimum Inhibitory Concentration. It counts as cell-based. As for the experimental part:
(§1) The in vitro minimum inhibitory concentrations (MIC) of anandimycin were determined against a variety of microorganisms using the standard tube dilution procedure.

The next data set relates to Str. faecalis 20,588. The data set can be described thus: in vitro MIC, standard tube dilution procedure. It counts as cell-based. Conditions: Enterococcus faecalis, read-out: Minimum Inhibitory Concentration. The method, then: as §1
The test system of another data set is Ps. aeruginosa 9843A. Description: in vitro MIC, standard tube dilution procedure. In kind it is cell-based. Conditions: Pseudomonas aeruginosa, 9843A, read-out: Minimum Inhibitory Concentration. The method, then: as §1
The subject of a further data set is E. coli 15119. The data set can be described thus: in vitro MIC, standard tube dilution procedure. It counts as cell-based. Conditions: Escherichia coli, 15119, read-out: Minimum Inhibitory Concentration. The method, then: as §1
For data set [2], the system named is Staph. aureus (penicillin-resistant) 9606. Description: in vitro MIC, standard tube dilution procedure. In kind it is cell-based. The conditions noted are these: Staphylococcus aureus, read-out: Minimum Inhibitory Concentration. The method, then: as §1
The next data set has as its system E. coli 20341-1. Description: in vitro MIC, standard tube dilution procedure. In kind it is cell-based. The conditions noted are these: Escherichia coli, 203411, read-out: Minimum Inhibitory Concentration. The method, then: as §1
Another data set concerns K. pneumoniae 15130. The data set can be described thus: in vitro MIC, standard tube dilution procedure. It counts as cell-based. Conditions: Klebsiella pneumoniae, 15130, read-out: Minimum Inhibitory Concentration. The method, then: as §1
The next data set concerns Ser. marcescens 20019. The data set can be described thus: in vitro MIC, standard tube dilution procedure. In kind it is cell-based. Conditions: Serratia marcescens, 20019, read-out: Minimum Inhibitory Concentration. The method, then:
as §1

The subject of the next data set is Ent. cloacae 9659. Description: in vitro MIC, standard tube dilution procedure. It counts as cell-based. The conditions noted are these: Enterobacter cloacae, 9659, read-out: Minimum Inhibitory Concentration. The method, then: as §1
Another data set deals with Pr. vulgaris 21559. Description: in vitro MIC, standard tube dilution procedure. The conditions noted are these: Proteus vulgaris, 21559, read-out: Minimum Inhibitory Concentration. It counts as cell-based. As for the experimental part:
as §1

The test system of a further data set is Str. pyogenes 9604. Description: in vitro MIC, standard tube dilution procedure. Conditions: Streptococcus pyogenes, 9604, read-out: Minimum Inhibitory Concentration. It counts as cell-based. As for the experimental part: as §1
For another data set, the system named is Pr. mirabilis 9900. Description: in vitro MIC, standard tube dilution procedure. The conditions noted are these: Proteus mirabilis, 9900, read-out: Minimum Inhibitory Concentration. It counts as cell-based. As for the experimental part: as §1
The test system of another data set is Staph. aureus 9587. Description: in vitro MIC, standard tube dilution procedure. It counts as cell-based. The conditions noted are these: Staphylococcus aureus, 9587, read-out: Minimum Inhibitory Concentration. As for the experimental part:
as §1

A short description of data set [3]: antimicrobial / antibiotic activity (in words). It counts as cell-based.
For another data set, the system named is tumors. The data set can be described thus: antitumor activity (in words). Also noted: species or system experimental animals. The conditions noted are these: in vivo.
The next data set has as its system E. coli. Description: lysogenic bacterial induction (ILB) assay. It counts as cell-based. An excerpt:
Analytical high pressure liquid chromatography, Bacillus subtilis zone of inhibition, lysogenic bacterial induction and P388 mouse tumor assays are used throughout the above-described separation processes to monitor relative levels of anandimycin and co-produced substances.

Regarding `C=Cc1cc(OC)c2c(c1)c(=O)oc1c2cc(OC)c2c(O)ccc(C3OC(C(C)O)C(O)C3O)c21` (stereo not shown) [Anandimycin], the “solubility in trituration solvents” value in [1] (acetone, 40:30:30 chloroform:methanol:tetrahydrofuran) was “insoluble”. The “solubility in chromatography solvents” value in [1] (solvents for (preparative) chromatography) is listed as “poor solubility”. The MIC in the data set on Str. pneumoniae 9585 is 0.13 µg/mL (≈ 0.263 µM); with Str. faecalis 20,588 it was 0.016 µg/mL (≈ 0.0324 µM); in the data set on Ps. aeruginosa 9843A, more than 63 µg/mL; in the data set on E. coli 15119 it was more than 63 µg/mL; in [2], 0.25 µg/mL (≈ 0.506 µM); in the data set with E. coli 20341-1 it was more than 63 µg/mL. For the same compound, the MIC was more than 63 µg/mL in the data set on K. pneumoniae 15130; more than 63 µg/mL in the data set with Ser. marcescens 20019; more than 63 µg/mL in the data set on Ent. cloacae 9659; 2 µg/mL (≈ 4.04 µM) in the data set on Pr. vulgaris 21559; 0.13 µg/mL (≈ 0.263 µM) in the data set on Str. pyogenes 9604; more than 63 µg/mL in the data set on Pr. mirabilis 9900. For the same compound, the MIC in the data set with Staph. aureus 9587 is 0.06 µg/mL (≈ 0.121 µM). For the same compound, the “antimicrobial / antibiotic activity” value in [3] was “exhibit antimicrobial activity”. In addition, the antitumor activity result in the data set with tumors was “inhibit the growth of tumors in experimental animals”. Further, the “toxicity to the host organism (E. coli)” value in the data set on E. coli (above 1.6 μg/ml) is “toxic to the host organism”. Besides, the ILB activity entry in the data set with E. coli (maximum concentration of 1.6 μg/ml) is “completely devoid of ILB activity”.
